Test results as given in patent publication US8900636B2, “Controlled release compositions” (Evonik Corporation, priority 2003, dated 2014).

Assay: Stability of free peptide incubated in release medium (HPLC)
Format: physicochemical
Conditions: PBS, pH 7.2, 37° C., after 49 days
Procedure: Octreotide acetate as the free peptide was measured to be 95% intact by high-pressure liquid chromatography (HPLC) following incubation in the release medium (PBS, pH 7.2, 37° C.) after 49 days. In contrast, incubation of octreotide acetate PLGA microparticle formulations produced 55% of modified peptide species after 70 days in the release medium (PBS, pH 7.2, 37° C., Table 2). […] The masses found were consistent with random acylation, for example, peptide plus one or two glycolic or lactic acid monomers in any combination. It may be that acylation products arise from attack on PLGA fragments or the polymer backbone by nucleophilic moieties in octreotide. At a lower pH these moieties likely would be protonated reducing their nucleophilicity and consequently the amount of acylated product. It was observed that formation of acylated byproducts for octreotide acetate PLGA microparticles incubated in 100 mM sodium acetate (NaOAc, pH 4.0) buffer was reduced to 1.25% at 49 days, in marked contrast to the results for PBS buffer (55%).

intact peptide by HPLC: 95%
Structure (SMILES): C[C@@H](O)[C@@H]1NC(=O)[C@H](CCCCN)NC(=O)[C@@H](Cc2c[nH]c3ccccc23)NC(=O)[C@H](Cc2ccccc2)NC(=O)[C@@H](NC(=O)[C@H](N)Cc2ccccc2)CSSC[C@@H](C(=O)N[C@H](CO)[C@@H](C)O)NC1=O [Octreotide acetate, octreotide acetate]
